Data as given in patent publication US12630545B2, “Crystal of compound X7 hydrochloride and its preparation method and application” (ORxes Therapeutics Co., Ltd., priority 2020, dated 2026).
“Also recorded” adds a separate entry of the source. Where a name gives a salt, the structure may show the parent alone.

Legend:
[1] = Equilibrium solubility in water; assay type: physicochemical; settings: for Crystal form transformation: XRPD of solid after 24 hours equilibrium in water; for pH: supernatant after 24 hours equilibrium in water
Experimental: As a comparison, the equilibrium solubility was also tested under the same conditions for crystal form C sample (prepared in Example 11), crystal form D sample (prepared in Example 12), and crystal form F sample (prepared in Example 13). The suspension of each crystal form (˜10 mg/mL) was prepared in the test, magnetically stirred at room temperature for 24 hours (rotating speed˜800 rpm) and then centrifuged (10000 rpm, 5 min). The solubility and pH were determined for the supernatant after filtration ([…] PTFE filter membrane) and XRPD (transmission) for the solid.

[2] = Hygroscopicity by dynamic vapor sorption (DVS); assay type: physicochemical
Experimental: Dynamic vapor sorption (DVS) curves were created using DVS Intrinsic of SMS (Surface Measurement Systems). The relative humidity at 25° C. was corrected by the deliquescence points of LiCl, Mg (NO3)2, and KCl.

[3] = Solid-state stability (HPLC purity, XRPD crystal form); assay type: physicochemical
Experimental: For the solid samples separated under different conditions, the chemical stability was evaluated by determining purity using the HPLC method, and the physical stability was evaluated by determining the crystal form using the XRPD test.

[4] = tested on: isolated rabbit vascular smooth muscle contraction induced by spasmodic agent AD; assay: Relaxation of isolated rabbit vascular smooth muscle contraction induced by spasmodic agent AD; assay type: cell-based; settings: Oryctolagus cuniculus; adrenaline hydrochloride 10^−5 mol/L; X7 1×10^−9˜1×10^−6 mol/L; read-out: −logEC50 to relax the rabbit aorta contraction by AD (converted)
Experimental: After anesthetizing the rabbit, its chest was quickly cut open. The descending aorta, connective tissues, and surrounding adipose tissues were removed (if the serotonin receptor antagonistic test was carried out, a smooth stainless steel rod was used to remove the endothelial cells), and the aorta was cut into 3-5 mm vascular rings. Then, the steel wire hook was passed through the vascular ring, with one end fixed on the ventilation hook and the other end connected to the tension transducer and placed in a bath tube containing 20 ml of nutrient solution. The change in tension was recorded. The temperature was maintained in the bath tube at 37±0.5° C., and a mixed gas (95% O2+5% CO2) was introduced at the rate of 1-2 bubbles per second. […]
After the specimen tension became stable, a waveform was recorded, the spasmodic agent adrenaline hydrochloride (AD) (10^−5 mol/L) was added in the bath tube to induce contraction. […] When the maximum response of the next contraction was basically the same as that of the previous one, the prepared X7 solution (1×10^−9˜1×10^−6 mol/L) was added, and the waveform recorded. With the maximum relaxation response of X7 as 100%, the relaxation percentage of X7 at each concentration was calculated and the dose-effect curve plotted using the relaxation percentage of X7 as the vertical coordinate and the logarithm of each concentration as the horizontal coordinate. […]

[5] = tested on: 5-hydroxytryptamine (5-HT) receptor in rabbit vascular smooth muscle; assay: Antagonism of 5-HT cumulative contraction of rabbit aorta; assay type: cell-based
Experimental: (§1) After anesthetizing the rabbit, its chest was quickly cut open. The descending aorta, connective tissues, and surrounding adipose tissues were removed (if the serotonin receptor antagonistic test was carried out, a smooth stainless steel rod was used to remove the endothelial cells), and the aorta was cut into 3-5 mm vascular rings. Then, the steel wire hook was passed through the vascular ring, with one end fixed on the ventilation hook and the other end connected to the tension transducer and placed in a bath tube containing 20 ml of nutrient solution. The change in tension was recorded. The temperature was maintained in the bath tube at 37±0.5° C., and a mixed gas (95% O2+5% CO2) was introduced at the rate of 1-2 bubbles per second. The initial load of the specimen was 1.5 g. The nutrient solution was changed every 20 min, balanced for 2 h, and the test was started after the baseline became stable.
After the specimen tension became stable, the waveform was recorded and 5-HT added cumulatively in the bath tube (10^−7˜3×10^−4 mol/L) until reaching the maximum response, and the waveform was recorded again. […]
After the specimen tension became stable, a waveform was recorded and 5-HT cumulatively added in the bath tube (10^−7˜3×10^−4 mol/L) until reaching the maximum response, and the waveform was recorded again. […]

[6] = tested on: α receptor in rabbit vascular smooth muscle; assay: Antagonism of norepinephrine cumulative contraction of rabbit aorta; assay type: cell-based
Experimental: as §1
After the specimen tension became stable, a waveform was recorded and norepinephrine added cumulatively in the bath tube (10^−8˜6×10^−5 mol/L) until reaching the maximum response, and then, the waveform was recorded again. […]
After the specimen tension became stable, a waveform was recorded and norepinephrine added cumulatively in the bath tube (10^−8˜3×10^−3 mol/L) until reaching the maximum response, and then, the waveform was recorded. […]

[7] = room temperature, hydrochloride
[8] = 3 conditions: sealed 80° C. 1 day, open 25° C./60% RH and 40° C./75% RH 1 week, hydrochloride
[9] = equilibrium solubility in water, room temperature, 24 hours, hydrochloride

c1ccc2c(c1)nnn2CCCCN1CCN(c2nsc3ccccc23)CC1 [Crystal form A, 3-(4-(4-(1H-benzotriazol-1-yl)butyl)piperazin-1-yl) benzoisothiazole hydrochloride]
Crystal form transformation ([1]; hydrochloride): No | Crystal form transformation ([1]; listed as crystal form A, hydrochloride): remained unchanged | pH [1, 7]: 4.6 | solubility at 24 h ([1]; water, thermodynamic from solid, equilibrium solubility in water, room temperature, 24 hours): 3800 µg/mL | crystal form transformation after the DVS test ([2]; 25° C.): no crystal form transformation | water absorbed (DVS) ([2]; 25° C./80% RH): 0.08% | hygroscopicity ([2]; DVS, 25° C./80% RH, China Pharmacopoeia 2015 guide): no hygroscopicity | chemical purity change (chemical stability, HPLC) [3, 8]: does not undergo crystal form transformation and chemical purity reduction; also recorded: no crystal form transformation or reduction of HPLC purity | crystal form transformation (physical stability, XRPD) [3, 8]: does not undergo crystal form transformation; also recorded: no crystal form transformation

c1ccc2c(c1)nnn2CCCCN1CCN(c2nsc3ccccc23)CC1 [Crystal form B, 3-(4-(4-(1H-benzotriazol-1-yl)butyl)piperazin-1-yl) benzoisothiazole hydrochloride]
Crystal form transformation ([1]; hydrochloride): No | Crystal form transformation ([1]; listed as crystal form B, hydrochloride): remained unchanged | Solubility [1, 9]: 3400 µg/mL | pH [1, 7]: 4.9 | water absorption (DVS) ([2]; adsorption process, 95% RH, 25° C.): 12.5% | water absorbed (DVS) ([2]; desorption process, 30% RH, 25° C.): 0.4% | water absorbed (DVS) ([2]; desorption process, 50% RH, 25° C.): 12.3% | chemical purity change (chemical stability, HPLC) [3, 8]: does not decrease | HPLC purity change ([3]; open container, 25° C./60% RH, 1 week): no change in crystal form or HPLC purity | crystal form change (physical stability, XRPD) ([3]; open container, 25° C./60% RH, 1 week, hydrochloride): no change in crystal form | crystal form change (physical stability, XRPD) ([3]; open container, 25° C./60% RH, 1 week, listed as crystal form B, hydrochloride): remains unchanged

c1ccc2c(c1)nnn2CCCCN1CCN(c2nsc3ccccc23)CC1 [Crystal form C, 3-(4-(4-(1H-benzotriazol-1-yl)butyl)piperazin-1-yl) benzoisothiazole hydrochloride]
Crystal form transformation ([1]; hydrochloride): transformed into crystal form B | Solubility [1, 9]: 3300 µg/mL | pH [1, 7]: 4.9

c1ccc2c(c1)nnn2CCCCN1CCN(c2nsc3ccccc23)CC1 [Crystal form D, 3-(4-(4-(1H-benzotriazol-1-yl)butyl)piperazin-1-yl) benzoisothiazole hydrochloride]
Crystal form transformation ([1]; listed as 0, hydrochloride): transformed into crystal form B | Solubility [1, 9]: 3100 µg/mL | pH [1, 7]: 4.9

c1ccc2c(c1)nnn2CCCCN1CCN(c2nsc3ccccc23)CC1 [Crystal form F, 3-(4-(4-(1H-benzotriazol-1-yl)butyl)piperazin-1-yl) benzoisothiazole hydrochloride]
Crystal form transformation ([1]; hydrochloride): transformed into crystal form B | Solubility [1, 9]: 2900 µg/mL | pH [1, 7]: 4.7

c1ccc2c(c1)nnn2CCCCN1CCN(c2nsc3ccccc23)CC1 [X7, 3-(4-(4-(1H-benzotriazol-1-yl)butyl)piperazin-1-yl) benzoisothiazole hydrochloride]
EC50 [4]: 8.51 nM | PA2 to resist rabbit aorta contraction by 5HT ([5]; X7 10^−7 mol/L, endothelium removed): 8.86±0.14 | PA2 to resist rabbit aorta contraction by norepinephrine ([6]; X7 3×10^−8 mol/L): 7.98±0.04

COc1cc2nc(N3CCN(C(=O)C4COc5ccccc5O4)CC3)nc(N)c2cc1OC (stereo not shown) [doxazosin, reference compound]
PA2 to resist rabbit aorta contraction by NA ([6]; doxazosin 10^−7 mol/L): 7.83±0.05

COc1cccc(CCc2ccccc2OCC(CN(C)C)OC(=O)CCC(=O)O)c1 (stereo not shown) [sarpogrelate, reference compound]
PA2 to resist rabbit aorta contraction by 5-HT ([5]; sarpogrelate 10^−6 mol/L): 7.21±0.08
